Source: patent publication US20260118363A1, “Application of GLUN2A and NMDA Receptor Containing GLUN2A as Targets in Screening Drugs for Treating Depression” (Synphatec (Shanghai) Biopharmaceutical Technology Co., Ltd., priority 2021, published 2026)

Legend:
[1] = test system: excitatory neurons in the hippocampus; assay: Whole cell recording of intrinsic excitability in hippocampal slices; format: cell-based, mouse; details: for excitability of hippocampal neurons (number of action potentials): MK-801 10 µM, ketamine 20 µM
Description: The beaker containing choline chloride slice solution was placed in an ice box and continuously introduced with a mixture of 95% O2 and 5% CO2 to saturate it with oxygen for use. After anesthetized with isoflurane, mice aged 4-8 weeks were quickly decapitated and euthanized. After exposing the skull and peeling off the dura mater, the whole brain was placed in a pre-cooled choline chloride solution for about 1 minute to reduce brain temperature. The whole brain was then taken out and the bilateral hippocampus were peeled off and attached to the surface of the agar block with one end of the hippocampus close to one of the edges of the agar block, after which the hippocampus-attached agar block was glued with 502 adhesive to a removable tray of the oscillating slicer, which was secured in the slicing tank of the oscillating slicer filled with pre-cooled choline chloride slicing solution. The oscillating slicer blade was adjusted to the horizontal position, then start the slicer to begin slice. The speed of the oscillating slicer was set to about 0.2 mm/s, and the slice thickness was 400 μm. The sliced hippocampus was carefully placed into ACSF preheated in water bath at 33-34° C. using a rubber hose and incubated for 30-60 minutes with a continuous introduction of a gas mixture of 95% O2 and 5% CO2. After incubation at 33-34° C., the vessel containing the brain slices was removed from the water bath and incubated at room temperature for about 30 min with continuous aeration and then electrophysiological recordings were performed. Hippocampal slices can be used for about 6 hours under room temperature with continuous aeration.
Hippocampal slices after incubation were carefully transferred to the bath of the microscope carrier stage with a pipette, and were held in place by pressing using an anchor attached to parallel nylon filaments, using a peristaltic pump to keep the bath continuously pumped with oxygen-saturated ACSF, and the temperature was maintained at room temperature of about 23-26° C. The CA1 region of the hippocampus was firstly localised at low magnification (10×), then switching to high magnification (40×) to locate CA1, after which the field of view was switched to the monitor to look for pyramidal neurons with good condition in hippocampal CA1. […] In the experiment, a P-1000 electrode drawing instrument was used to draw glass electrodes using a three-step method, making the impedance of the electrode into the liquid 4-6 MS2. Prior to electrode into the liquid, a 10 ml syringe was used to apply about 2 ml or so of positive pressure into the electrode to prevent clogging of the electrode tip, and the baseline of the recording software was reset to zero using the Multiple 700B. A microelectrode operator was applied to slowly approach the electrode to the surface of the cell. When the electrode touched the surface of the cell, a “dimple-shaped” depression would appear. At this time, positive pressure would be immediately released and appropriate negative pressure would be applied to form a seal between the electrode and the cell. […] After stabilizing for about 30-60 seconds, negative pressure was applied to break the membrane, and at this moment, a whole cell mode was formed. In current clamp mode, a depolarized step current stimulation of 10-330 pA was applied, with a step current of 20 pA. The intrinsic excitability of the neuron was evaluated by analyzing the number of action potentials generated by the neuron.

mice [2] = assay: Forced swim test; format: in vivo, mouse; details: for immobility time in the forced swim test: 10 mg/kg intraperitoneal injection, 1 hour after injection
Description: The mice were placed in a transparent organic glass water tank with a diameter of 25 cm and a height of 30 cm, which was filled with 15 cm high of water with a temperature of 23-25° C., and the total recording time was 6 min. The immobility time of the mice within the latter 4 min was analysed, reflecting the degree of helplessness and despair of the mice.
(§1) MK-801 at a dose of 0.1 mg/kg, ketamine at a dose of 10 mg/kg, and Ro 25-6981 at a dose of 10 mg/kg were administrated to mice by intraperitoneal injection. Behavioural experiments such as subsequent open field tests, tail suspension tests, and forced swim tests were carried out 1 hour post intraperitoneal injection.

mice [3] = assay: Tail suspension test; format: in vivo, mouse; details: 10 mg/kg
Description: After fixing the mice at about 1.5 cm from the distal end of the tail, the mice were suspended with their heads facing downwards at a distance of about 35 cm from the ground. The total duration of recording was 6 min, and the percentage of time that the mice remained stationary during the latter 4 min was analysed to reflect the degree of desperation of mice.
as §1

[4] = hippocampal slices from GluN2A KO mice
[5] = hippocampal slices from WT mice, Ro 25-6981 3 M (1-2 hours incubation), same depolarizing current stimulation
[6] = GluN2A KO mice, vs control group

Compound	intrinsic excitability of excitatory neurons in the hippocampus ([1]; acute hippocampal slices of WT mice incubated with Ro 25-6981 while adding MK-801)	excitability of hippocampal neurons (number of action potentials) [1, 4]	excitability of hippocampal neurons (number of action potentials) [1, 5]	immobility time in the forced swim test (mice [2]; [6])	immobility time in forced swimming (mice [2]; GluN2A conditional knockout mice (tamoxifen-induced, adult), after treatment with MK-801 (FIG. 5))	rapid antidepressant like behavior (immobility time) (mice [2]; WT mice with GluN2B selectively inhibited by Ro 25-6981 plus MK-801, FIG. 11: tail suspension and forced swim tests)	immobility time in the forced swim test (mice [2]; WT mice, vs control (saline))	immobility time in forced swimming (mice [2]; control mice (UBC-CreERT/Grin2a flox/flox without GluN2A knockout), after administration of MK-801 (FIG. 5))	immobility time in tail suspension test (mice [3]; GluN2A KO mice)	immobility time in tail suspension test (mice [3]; WT mice, vs control (Saline) group)
C[C@]12N[C@H](Cc3ccccc31)c1ccccc12 [MK-801]	still induced an increase	blocked the increase in excitability	significantly increased	comparable	not altered	can still induce rapid antidepressant like behavior	significantly reduced	significantly reduced		
C[C@@H](CN1CCC(Cc2ccccc2)CC1)[C@@H](O)c1ccc(O)cc1 [Ro 25-6981]			did not change	significantly reduced			significant decrease		significantly reduced	significant decrease
CNC1(c2ccccc2Cl)CCCCC1=O (centres unmarked) [ketamine]		blocked the increase in excitability	significantly increased	comparable			significantly reduced			
